According to the supplement of paper PMC10307832:

Experiments:
Experiment in all cases: relative viability (nuclei count vs DMSO), 5 days (fraction); higher = more cells survive
Bleomycin + Bortezomib = compound: CC1=C(N=C(N=C1N)[C@H](CC(=O)N)NC[C@@H](C(=O)N)N)C(=O)N[C@@H]([C@H](C2=CN=CN2)OC3C(C(C(C(O3)CO)O)O)OC4C(C(C(C(O4)CO)O)OC(=O)N)O)C(=O)N[C@H](C)[C@H]([C@H](C)C(=O)N[C@@H]([C@@H](C)O)C(=O)NCCC5=NC(=CS5)C6=NC(=CS6)C(=O)NCCC[S+](C)C)O [Bleomycin] + CC(C)C[C@H](NC(=O)[C@H](Cc1ccccc1)NC(=O)c1cnccn1)B(O)O [Bortezomib] (partner 0.002 µM); settings: main component drawn
Method in brief: (§1)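 Lung cancer cell lines were seeded in 1536-well plates and dosed by pin tool the next day, with either a single drug or a fixed anchor-drug dose combined with five library-drug doses (not always all listed) spaced in √10 steps. Five days later, one step fixed the cells and stained their nuclei (final 0.05% Triton X-100, 1% formaldehyde, 1 ug/ml Hoechst), and nuclei were counted on 4× images. Relative viability is the nuclei count in treated wells divided by the count in vehicle wells, and each value is the median of duplicate plates.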

Bleomycin + Dasatinib = compound: CC1=C(N=C(N=C1N)[C@H](CC(=O)N)NC[C@@H](C(=O)N)N)C(=O)N[C@@H]([C@H](C2=CN=CN2)OC3C(C(C(C(O3)CO)O)O)OC4C(C(C(C(O4)CO)O)OC(=O)N)O)C(=O)N[C@H](C)[C@H]([C@H](C)C(=O)N[C@@H]([C@@H](C)O)C(=O)NCCC5=NC(=CS5)C6=NC(=CS6)C(=O)NCCC[S+](C)C)O [Bleomycin] + Cc1nc(Nc2ncc(C(=O)Nc3c(C)cccc3Cl)s2)cc(N2CCN(CCO)CC2)n1 [Dasatinib] (partner 0.075 µM); settings: main component drawn
Method in brief: as §1

Etoposide + Trametinib = compound: COc1cc([C@@H]2c3cc4c(cc3[C@@H](O[C@@H]3O[C@@H]5CO[C@@H](C)O[C@H]5[C@H](O)[C@H]3O)[C@H]3COC(=O)[C@H]23)OCO4)cc(OC)c1O [Etoposide] + CC(=O)Nc1cccc(-n2c(=O)n(C3CC3)c(=O)c3c(Nc4ccc(I)cc4F)n(C)c(=O)c(C)c32)c1 [Trametinib] (partner 0.02 µM)
Method in brief: as §1

Etoposide + Foretinib = compound: COc1cc([C@@H]2c3cc4c(cc3[C@@H](O[C@@H]3O[C@@H]5CO[C@@H](C)O[C@H]5[C@H](O)[C@H]3O)[C@H]3COC(=O)[C@H]23)OCO4)cc(OC)c1O [Etoposide] + COc1cc2c(Oc3ccc(NC(=O)C4(C(=O)Nc5ccc(F)cc5)CC4)cc3F)ccnc2cc1OCCCN1CCOCC1 [Foretinib] (partner 0.25 µM)
Method in brief: as §1

Row | Cell Line | relative viability (Bleomycin + Bortezomib; first compound 0.01 µM) | relative viability (Bleomycin + Bortezomib; first compound 0.03162 µM) | relative viability (Bleomycin + Bortezomib; first compound 0.1 µM) | relative viability (Bleomycin + Bortezomib; first compound 0.3162 µM) | relative viability (Bleomycin + Bortezomib; first compound 1 µM) | relative viability (Bleomycin + Dasatinib; first compound 0.01 µM) | relative viability (Bleomycin + Dasatinib; first compound 0.03162 µM) | relative viability (Bleomycin + Dasatinib; first compound 0.1 µM) | relative viability (Bleomycin + Dasatinib; first compound 0.3162 µM) | relative viability (Bleomycin + Dasatinib; first compound 1 µM) | relative viability (Etoposide + Trametinib; first compound 0.01 µM) | relative viability (Etoposide + Trametinib; first compound 0.03162 µM) | relative viability (Etoposide + Trametinib; first compound 0.1 µM) | relative viability (Etoposide + Trametinib; first compound 0.3162 µM) | relative viability (Etoposide + Trametinib; first compound 1 µM) | relative viability (Etoposide + Foretinib; first compound 0.01 µM) | relative viability (Etoposide + Foretinib; first compound 0.03162 µM) | relative viability (Etoposide + Foretinib; first compound 0.1 µM) | relative viability (Etoposide + Foretinib; first compound 0.3162 µM) | relative viability (Etoposide + Foretinib; first compound 1 µM)
1 | NCI-H1975 | 0.27 | 0.342 | 0.27 | 0.16 | 0.142 | 0.34 | 0.343 | 0.287 | 0.13 | 0.115 | 0.303 | 0.425 | 0.284 | 0.268 | 0.236 | 0.914 | 0.938 | 0.895 | 0.91 | 0.286
2 | CAL-12T |  | 0.87 | 0.692 | 0.293 | 0.28 | 0.246 | 0.259 | 0.164 | 0.0878 | 0.12 | 0.238 | 0.43 | 0.241 | 0.367 | 0.211 | 1.19 | 1.16 | 1.13 | 0.765 | 0.401
3 | NCI-H1623 |  |  |  |  |  | 0.561 | 0.557 | 0.521 | 0.347 | 0.273 |  |  |  |  |  | 0.984 | 0.937 | 0.628 | 0.658 | 0.298
4 | HCC-44 | 0.544 | 0.333 | 0.225 | 0.153 | 0.145 |  |  |  |  |  | 1.01 | 1.21 | 1.09 | 0.97 | 0.739 |  |  |  |  | 
5 | EKVX | 0.859 | 1.04 | 0.954 | 0.511 | 0.318 | 0.56 | 0.435 | 0.502 | 0.276 | 0.26 | 0.287 | 0.382 | 0.303 | 0.295 | 0.169 | 1.09 | 0.711 | 0.448 | 0.237 | 0.303
6 | NCI-H1651 | 0.91 | 0.898 | 0.664 | 0.457 | 0.306 | 0.344 | 0.361 | 0.384 | 0.187 | 0.144 | 0.774 | 0.783 | 0.558 | 0.362 | 0.165 | 0.781 | 0.659 | 0.784 | 0.351 | 0.251
7 | NCI-H1944 |  |  |  |  |  | 0.173 | 0.177 | 0.159 | 0.115 | 0.106 | 0.435 | 0.46 | 0.297 | 0.255 | 0.175 | 0.697 | 0.95 | 0.578 | 0.471 | 0.347
8 | NCI-H1703 | 0.328 | 0.276 | 0.245 | 0.134 | 0.125 |  |  |  |  |  |  |  |  |  |  | 0.39 | 0.34 | 0.349 | 0.268 | 0.343
9 | Calu-6 | 0.638 | 0.673 | 0.334 | 0.226 | 0.191 |  |  |  |  |  |  |  |  |  |  | 0.825 | 0.922 | 0.921 | 0.41 | 0.234
10 | EBC-1 | 0.474 | 0.422 | 0.469 | 0.307 | 0.233 |  |  |  |  |  |  |  |  |  |  | 0.119 | 0.107 | 0.12 | 0.102 | 0.107
11 | A-427 | 0.857 | 0.817 | 0.725 | 0.167 | 0.213 | 0.53 | 0.56 | 0.496 | 0.137 | 0.144 | 0.695 | 0.812 | 0.621 | 0.47 | 0.296 | 0.947 | 1.08 | 0.853 | 0.424 | 0.284
12 | NCI-H2405 | 0.875 | 0.932 | 0.91 | 0.525 | 0.371 | 0.206 | 0.212 | 0.208 | 0.181 | 0.166 | 0.64 | 0.728 | 0.505 | 0.544 | 0.4 | 1.01 | 1.08 | 1.05 | 0.899 | 0.43
13 | NCI-H1355 | 1.13 | 1.24 | 1.03 | 0.376 | 0.262 | 0.668 | 0.661 | 0.84 | 0.252 | 0.192 | 0.396 | 0.478 | 0.27 | 0.384 | 0.256 | 0.812 | 0.998 | 0.828 | 0.507 | 0.285
14 | NCI-H358 |  |  |  |  |  | 0.183 | 0.165 | 0.176 | 0.107 | 0.156 | 0.141 | 0.122 | 0.119 | 0.118 | 0.0938 | 0.705 | 0.756 | 0.447 | 0.184 | 0.134
15 | RERF-LC-KJ | 0.887 | 0.727 | 0.625 | 0.343 | 0.334 | 0.498 | 0.56 | 0.468 | 0.246 | 0.191 | 0.7 | 0.899 | 0.822 | 0.835 | 0.6 | 0.788 | 0.866 | 0.639 | 0.83 | 0.767
16 | NCI-H23 | 0.424 | 0.374 | 0.276 | 0.165 | 0.2 | 0.535 | 0.552 | 0.321 | 0.148 | 0.167 | 0.299 | 0.342 | 0.309 | 0.265 | 0.24 | 0.924 | 0.941 | 0.678 | 0.4 | 0.242
17 | HOP-62 | 0.359 | 0.189 | 0.0755 | 0.113 | 0.072 | 0.49 | 0.479 | 0.377 | 0.165 | 0.106 | 0.348 | 0.395 | 0.325 | 0.343 | 0.316 | 1.06 | 1.05 | 0.967 | 0.628 | 0.418
